Source: patent publication US5607937A, “Piperazides of substituted phenylalanine derivatives as thrombin inhibitors” (priority 1993, dated 1997)
“And” between values parts separate entries of the source, which are not always exact repeats. Equal entries are not always repeated. Structures can show the parent of a compound that is named as a salt. Where two headings read alike, the source gives them in different places. Values belong to the compound of their own block, whether it stands above or below them.

How the values were obtained:
[1] = system: coagulation in human plasma; assay: prothrombin time (PT, Quick value) in human plasma
plasmin = plasmin (Homo sapiens, UniProt P00747); assay: inhibition of plasmin, dissociation constant Ki
trypsin = target: T1, trypsin (Bos taurus, UniProt P00760); assay: inhibition of trypsin, dissociation constant Ki; assay type: biochemical; design: thrombin and the related enzymes trypsin, plasmin, factor Xa, factor XIIa; conditions: Table 1; read-out: Ki, Trypsin
T1 sequence (P00760 24-246): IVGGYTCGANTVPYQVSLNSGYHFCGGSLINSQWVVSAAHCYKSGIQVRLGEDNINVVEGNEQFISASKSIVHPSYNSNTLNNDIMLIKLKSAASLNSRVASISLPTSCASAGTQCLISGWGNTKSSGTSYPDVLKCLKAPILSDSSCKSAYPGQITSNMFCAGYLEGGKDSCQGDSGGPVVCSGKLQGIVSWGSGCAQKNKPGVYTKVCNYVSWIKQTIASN
Description: (§1) The biological activity of the compounds of the present invention was determined in vitro as well as in vivo.

plasma kallikrein = plasma kallikrein (Homo sapiens, UniProt P03952); assay: inhibition of plasma kallikrein, dissociation constant Ki
tPA = tPA (Homo sapiens, UniProt P00750); assay: inhibition of tPA, dissociation constant Ki
factor Xa = factor Xa (Bos taurus, UniProt P00743); assay: inhibition of factor Xa, dissociation constant Ki; assay type: biochemical; conditions: Table 1
Description: as §1

glandular kallikrein = glandular kallikrein (Sus scrofa, UniProt P00752); assay: inhibition of glandular kallikrein, dissociation constant Ki
[2] = system: coagulation in human plasma; assay: thrombin time (TT) in human plasma
[3] = system: coagulation in human plasma; assay: activated partial thromboplastin time (aPTT) in human plasma
factor XIIa = target: T2, factor XIIa (Homo sapiens, UniProt P00748); assay: inhibition of factor XIIa, dissociation constant Ki
T2 sequence (P00748 373-615 limits assumed): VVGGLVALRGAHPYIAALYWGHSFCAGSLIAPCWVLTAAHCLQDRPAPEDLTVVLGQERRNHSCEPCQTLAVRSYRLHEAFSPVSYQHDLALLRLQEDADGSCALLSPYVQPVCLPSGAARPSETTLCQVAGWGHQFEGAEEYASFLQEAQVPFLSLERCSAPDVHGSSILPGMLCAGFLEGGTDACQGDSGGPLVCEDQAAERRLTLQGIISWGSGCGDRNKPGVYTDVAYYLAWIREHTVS

thrombin [4] = target: T3, thrombin (Bos taurus, UniProt P00735); assay: biochemical
thrombin [5] = target: T3, thrombin
[6] = plasma concentration in rats after intravenous administration; assay type: in vivo; conditions: rat
Description: (§2) A physiological NaCl solution of the substance to be tested was submitted to high pressure liquid chromatography (HPLC) in order to determine its characteristic substance-specific retention time with the chosen test conditions.
(§3) The substance to be tested was diluted in vitro in rat plasma. This solution was also submitted to HPLC to see whether the characteristic peak of the substance once again appeared at the substance-specific retention time.
(§4) Blood samples were taken at time intervals of 15 minutes, from which plasma samples were prepared by centrifugation; those samples were also submitted to HPLC to see whether the characteristic peak of the substance appeared again at the substance-specific retention time.
(§5) After administration, blood samples were taken from the test animals at time intervals from 2 to maximally 360 minutes and the blood level of the compounds to be tested was determined by HPLC.

[7] = plasma concentration in rats after oral administration; assay type: in vivo; conditions: rat
Description: as §2, §3, §4, §5

[8] = plasma concentration in rats after rectal administration; assay type: in vivo; conditions: rat
[9] = read-out: Ki, Thrombin, Table 1

factor Xa, sequence (P00743 234-492 limits assumed): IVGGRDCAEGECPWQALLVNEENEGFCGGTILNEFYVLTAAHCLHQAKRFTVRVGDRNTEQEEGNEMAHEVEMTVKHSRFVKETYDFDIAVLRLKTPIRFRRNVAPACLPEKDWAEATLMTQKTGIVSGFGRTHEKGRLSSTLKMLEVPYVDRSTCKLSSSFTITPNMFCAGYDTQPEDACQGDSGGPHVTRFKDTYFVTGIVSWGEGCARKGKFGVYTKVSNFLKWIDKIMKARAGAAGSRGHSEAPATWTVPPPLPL
factor Xa, sequence (P00743 41-180 partner limits assumed): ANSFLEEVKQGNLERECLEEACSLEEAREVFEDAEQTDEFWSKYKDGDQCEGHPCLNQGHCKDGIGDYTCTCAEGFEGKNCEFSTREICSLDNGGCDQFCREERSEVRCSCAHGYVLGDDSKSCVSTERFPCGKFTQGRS
glandular kallikrein, sequence (P00752 8-246): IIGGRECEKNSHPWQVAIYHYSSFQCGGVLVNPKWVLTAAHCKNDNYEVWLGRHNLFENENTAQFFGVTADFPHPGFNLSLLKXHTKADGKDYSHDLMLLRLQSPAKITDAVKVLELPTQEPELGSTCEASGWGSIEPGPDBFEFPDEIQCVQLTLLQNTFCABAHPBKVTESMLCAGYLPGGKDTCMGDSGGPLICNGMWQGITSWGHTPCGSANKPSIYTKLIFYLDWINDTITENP
plasma kallikrein, sequence (P03952 391-638 limits assumed, species assumed): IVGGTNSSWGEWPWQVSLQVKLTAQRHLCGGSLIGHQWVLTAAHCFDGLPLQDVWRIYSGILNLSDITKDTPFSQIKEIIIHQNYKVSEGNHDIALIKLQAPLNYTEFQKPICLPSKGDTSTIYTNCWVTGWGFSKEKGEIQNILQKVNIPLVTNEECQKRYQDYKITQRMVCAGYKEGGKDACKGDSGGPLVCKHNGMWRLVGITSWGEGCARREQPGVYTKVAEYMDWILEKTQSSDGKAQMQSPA
plasma kallikrein, sequence (P03952 20-390 partner limits assumed, species assumed): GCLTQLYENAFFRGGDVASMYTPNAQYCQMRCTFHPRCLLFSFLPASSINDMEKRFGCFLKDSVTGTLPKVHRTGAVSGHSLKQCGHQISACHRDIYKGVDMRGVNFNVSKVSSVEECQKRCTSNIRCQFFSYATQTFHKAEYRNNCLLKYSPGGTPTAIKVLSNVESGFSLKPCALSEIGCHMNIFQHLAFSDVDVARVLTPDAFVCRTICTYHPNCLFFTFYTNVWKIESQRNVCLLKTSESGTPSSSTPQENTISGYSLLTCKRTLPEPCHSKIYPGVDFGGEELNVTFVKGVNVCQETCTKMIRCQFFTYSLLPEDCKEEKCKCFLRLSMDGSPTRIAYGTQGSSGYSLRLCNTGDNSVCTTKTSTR
plasmin, sequence (P00747 581-810 limits assumed): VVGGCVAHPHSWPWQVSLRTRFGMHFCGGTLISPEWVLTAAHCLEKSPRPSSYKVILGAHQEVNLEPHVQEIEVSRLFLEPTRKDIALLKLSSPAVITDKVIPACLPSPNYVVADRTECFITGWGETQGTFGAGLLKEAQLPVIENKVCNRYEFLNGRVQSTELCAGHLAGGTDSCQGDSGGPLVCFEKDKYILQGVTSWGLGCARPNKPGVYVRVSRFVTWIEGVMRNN
plasmin, sequence (P00747 97-580 partner limits assumed): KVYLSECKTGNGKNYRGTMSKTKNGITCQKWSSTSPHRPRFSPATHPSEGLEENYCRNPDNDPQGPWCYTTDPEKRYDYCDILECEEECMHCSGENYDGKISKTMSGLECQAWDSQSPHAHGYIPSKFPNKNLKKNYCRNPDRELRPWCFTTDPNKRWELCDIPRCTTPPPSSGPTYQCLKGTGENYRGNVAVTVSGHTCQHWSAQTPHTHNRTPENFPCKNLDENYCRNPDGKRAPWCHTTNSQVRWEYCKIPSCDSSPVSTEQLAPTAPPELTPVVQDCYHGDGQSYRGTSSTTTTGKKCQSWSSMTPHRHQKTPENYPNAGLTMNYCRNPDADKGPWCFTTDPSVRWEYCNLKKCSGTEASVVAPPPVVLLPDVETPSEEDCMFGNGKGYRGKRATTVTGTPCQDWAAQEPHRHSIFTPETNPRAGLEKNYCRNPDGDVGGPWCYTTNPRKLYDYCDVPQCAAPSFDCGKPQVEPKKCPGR
tPA, sequence (P00750 36-562): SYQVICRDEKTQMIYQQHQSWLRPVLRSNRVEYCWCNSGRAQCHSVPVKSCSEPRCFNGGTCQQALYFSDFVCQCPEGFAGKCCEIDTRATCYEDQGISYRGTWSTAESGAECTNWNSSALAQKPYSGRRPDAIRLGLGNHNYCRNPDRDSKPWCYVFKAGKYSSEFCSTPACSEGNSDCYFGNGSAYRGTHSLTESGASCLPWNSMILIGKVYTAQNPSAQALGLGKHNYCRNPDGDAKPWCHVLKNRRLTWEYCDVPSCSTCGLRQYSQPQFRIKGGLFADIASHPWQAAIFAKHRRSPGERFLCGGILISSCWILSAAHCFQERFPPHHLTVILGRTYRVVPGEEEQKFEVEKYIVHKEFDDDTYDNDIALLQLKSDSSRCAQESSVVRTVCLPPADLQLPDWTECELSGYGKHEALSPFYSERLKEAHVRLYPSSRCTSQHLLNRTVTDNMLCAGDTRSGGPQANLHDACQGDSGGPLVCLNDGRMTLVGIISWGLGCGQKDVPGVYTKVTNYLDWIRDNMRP

SMILES: COc1cc(C)c(S(=O)(=O)N[C@@H](Cc2cccc(C(=N)N)c2)C(=O)N2CCN(S(C)(=O)=O)CC2)c(C)c1C [Compound 9]
Concentr. to double the Prothrombin time [1]: 1.1 µmol/L
Ki (plasmin): 8.2 µM
Ki (trypsin): 0.86 µM
Ki (plasma kallikrein): 170 µM
Ki (tPA): 600 µM
Ki (factor Xa): 48 µM
Ki (glandular kallikrein): > 1000 µM
Concentr. to double the Thrombin time [2]: 0.12 µmol/L
Concentr. to double the aPTT [3]: 0.57 µmol/L
Ki (factor XIIa): > 1000 µM
Ki (thrombin [4]): 0.02 µM

Ki (plasmin; read-out: Ki, Plasmin, Table 1): 4.8 µM
Ki (trypsin): 0.25 µM
Ki (thrombin [5]; [9]): 0.068 µM
Ki (plasma kallikrein; read-out: Ki, Plasma kallikr., Table 1): 37 µM
Ki (tPA; read-out: Ki, tPA, Table 1): 270 µM
Ki (factor Xa): 5.9 µM
Ki (glandular kallikrein; read-out: Ki, Gland. kallikr., Table 1): > 1000 µM
Ki (factor XIIa; read-out: Ki, Factor XIIa, Table 1): 72 µM
SMILES: CN(C)C(=O)N1CCN(C(=O)C(Cc2cccc(C(=N)N)c2)NS(=O)(=O)c2cccc3ccccc23)CC1 (stereo not shown) [AMD 1-Naph CO2 N(Me)2]

SMILES: CN(C)C(=O)N1CCN(C(=O)C(Cc2cccc(C(=N)N)c2)NS(=O)(=O)c2ccc3ccccc3c2)CC1 (stereo not shown) [AMD 2-Naph CO-N(Me)2]
Ki (plasmin): 6.2 µM
Ki (plasmin; read-out: Ki, Plasmin, Table 1): 6.1 µM
Ki (trypsin): 0.049 µM
Ki (thrombin [5]; [9]): 0.0088 µM
Ki (plasma kallikrein; Ki, Plasma kallikr., Table 1): 47 µM and 28 µM
Ki (tPA): > 1000 µM
Ki (factor Xa): 24 µM and 22 µM
Ki (glandular kallikrein): > 1000 µM
Ki (factor XIIa; Ki, Factor XIIa, Table 1): 200 µM and 130 µM
Ki (thrombin [4]): 0.013 µM

SMILES: CC(=O)N1CCN(C(=O)C(Cc2cccc(C(=N)N)c2)NS(=O)(=O)c2ccc3ccccc3c2)CC1 (stereo not shown) [Compound 1]
Concentr. to double the Prothrombin time [1]: 2.5 µmol/L
concentration to double the PT [1]: ≤ 1 μmol/1
concentration at 5 min ([6]; plasma, iv, i.v. 1 mg/kg, 5 min): 1060 ng/mL
concentration at 0.25 h ([6]; plasma, iv, i.v. 1 mg/kg, 15 min): 394 ng/mL
concentration at 0.5 h ([6]; plasma, iv, i.v. 1 mg/kg, 30 min): 150 ng/mL
concentration at 1 h ([6]; plasma, iv, i.v. 1 mg/kg, 60 min): 89 ng/mL
concentration at 2 h ([6]; plasma, iv, i.v. 1 mg/kg, 120 min): 74 ng/mL
concentration at 3 h ([6]; plasma, iv, i.v. 1 mg/kg, 180 min): 51 ng/mL
elimination in words ([6]; i.v.): eliminated at comparable rate
Ki (plasmin; read-out: Ki, Plasmin, Table 1): 8.4 µM
concentration at 0.5 h ([7]; plasma, oral 50 mg/kg, 30 min): 87 ng/mL
concentration at 1 h ([7]; plasma, oral 50 mg/kg, 60 min): 63 ng/mL
concentration at 2 h ([7]; plasma, oral 50 mg/kg, 120 min): 57 ng/mL
concentration at 3 h ([7]; plasma, oral 50 mg/kg, 180 min): 69 ng/mL
concentration at 4 h ([7]; plasma, oral 50 mg/kg, 240 min): 91 ng/mL
concentration at 5 h ([7]; plasma, oral 50 mg/kg, 300 min): 61 ng/mL
resorption in words ([7]; oral): only slightly resorbed
concentration at 0.5 h ([8]; plasma, rectal 100 mg/kg, 30 min): 31400 ng/mL
concentration at 1 h ([8]; plasma, rectal 100 mg/kg, 60 min): 17900 ng/mL
concentration at 2 h ([8]; plasma, rectal 100 mg/kg, 120 min): 3780 ng/mL
concentration at 3 h ([8]; plasma, rectal 100 mg/kg, 180 min): 1080 ng/mL
concentration at 4 h ([8]; plasma, rectal 100 mg/kg, 240 min): 438 ng/mL
concentration at 5 h ([8]; plasma, rectal 100 mg/kg, 300 min): 220 ng/mL
concentration at 6 h ([8]; plasma, rectal 100 mg/kg, 360 min): 158 ng/mL
detectable in plasma after rectal administration ([8]; rectal): ≥ 6 h
Ki (plasma kallikrein): 28 µM
Ki (tPA): > 1000 µM
Ki (factor Xa): 48 µM
Ki (glandular kallikrein): > 1000 µM
Concentr. to double the Thrombin time [2]: 0.095 µmol/L
concentration to double the TT [2]: less than 10^-7 mol/1
Concentr. to double the aPTT [3]: 0.90 µmol/L
concentration to double the aPTT [3]: ≤ 1 μmol/1
Ki (factor XIIa): 210 µM

SMILES: Cc1c(C)c(S(=O)(=O)N[C@@H](Cc2cccc(C(=N)N)c2)C(=O)N2CCN(S(C)(=O)=O)CC2)c(C)c2c1OC(C)(C)CC2 [Compound 10, Pmc-3-amidino-(L)-phenylalanine-4-methylsulfonyl piperazide hydrochloride]
Concentr. to double the Prothrombin time [1]: 0.8 µmol/L
Ki (plasma kallikrein): 110 µM
Ki (tPA): 600 µM
Ki (factor Xa): 37 µM
Ki (glandular kallikrein): > 1000 µM
Concentr. to double the Thrombin time [2]: 0.10 µmol/L
Concentr. to double the aPTT [3]: 0.44 µmol/L
Ki (factor XIIa): > 1000 µM
Ki (thrombin [4]): 0.0053 µM

Ki (plasmin): 8.6 µM
Ki (trypsin): 0.026 µM
Ki (plasma kallikrein): 7 µM
Ki (tPA): > 1000 µM
Ki (factor Xa): 4.1 µM
Ki (glandular kallikrein): > 1000 µM
Ki (factor XIIa): 52 µM
Ki (thrombin [4]): 0.014 µM
SMILES: CC(=O)N1CCN(C(=O)C(Cc2cccc(C(=N)N)c2)NS(=O)(=O)c2ccc3c(c2)C(=O)c2ccccc2C3=O)CC1 (stereo not shown) [Compound 4]
Concentr. to double the Prothrombin time [1]: 2.0 µmol/L
concentration to double the PT [1]: ≤ 1 μmol/1
Concentr. to double the Thrombin time [2]: 0.085 µmol/L
concentration to double the TT [2]: less than 10^-7 mol/1
Concentr. to double the aPTT [3]: 1.2 µmol/L
concentration to double the aPTT [3]: ≤ 1 μmol/1

Ki (plasmin; read-out: Ki, Plasmin, Table 1): 5 µM
Ki (thrombin [5]; [9]): 0.026 µM
Ki (thrombin [5]; read-out: Thrombin inhibition Ki, Table 7): 0.026 µM
Ki (plasma kallikrein): 79 µM
Ki (tPA): > 1000 µM
Ki (factor Xa): 9.7 µM
Ki (glandular kallikrein): > 1000 µM
Ki (factor XIIa): > 1000 µM
SMILES: CS(=O)(=O)N1CCN(C(=O)C(Cc2cccc(C(=N)N)c2)NS(=O)(=O)c2cccc3ccccc23)CC1 (stereo not shown) [Compound 11]
